The target of data set [1] is Rho-associated protein kinase 2 (Rattus norvegicus) (UniProt Q62868). The experiment in a line: Inhibition of rat ROCK2 (2 to 543 residues) at 10 uM using substrate after 5 mins in presence of [33P]ATP by scintillation counting method relative to control.
Data set [2] concerns the target Glycogen synthase kinase-3 beta (Homo sapiens) (UniProt P49841). Briefly: Inhibition of GSK3beta phosphorylation at ser9 in human U87MG cells at >1 uM by Western blot analysis relative to control. It counts as cell-based. In general terms: In western blotting, separated proteins are transferred to a membrane and probed.
A short description of data set [3]: Ratio of drug level in tumor to plasma in CrTac:Ncr-Fox1nu mouse at 40 mg/kg, po administered once daily for 2 days measured after 24 hrs post last dose. It counts as ADME, organism-based.
The subject of another data set is BT-474. Briefly: Anti-tumor activity against human BT474 cells xenografted in CrTac:Ncr-Fox1nu mouse assessed as reduction in tumor weight at 40 mg/kg, po administered once daily for 2 days measured after 26 days relative to control. It counts as functional.
For data set [4], the target named is Rho-associated protein kinase 1 (Homo sapiens) (UniProt Q13464). The experiment in a line: Inhibition of ROCK1 (unknown origin) at 10 uM relative to control.
For data set [5], the target named is cAMP-dependent protein kinase catalytic subunit alpha (Homo sapiens, UniProt P17612). The experiment in a line: Inhibition of recombinant human His-tagged PKA catalytic domain (1 to 351 residues) expressed in Escherichia coli using Ser/Thr 7 as substrate after 1 hr by FRET-based Z'-Lyte assay.
Data set [6] can be described thus: Half life in Balb/c mouse at 5 mg/kg, iv by LC-MS/MS analysis. It counts as ADME, organism-based. The note with it: in vivo.
For data set [7], the species on record is Homo sapiens. Briefly: Inhibition of PKA (unknown origin) at 10 uM relative to control.
Data set [8] relates to T1, Serine/threonine-protein kinase Sgk1 (Homo sapiens), O00141 [S422D].
T1 sequence (whole entry): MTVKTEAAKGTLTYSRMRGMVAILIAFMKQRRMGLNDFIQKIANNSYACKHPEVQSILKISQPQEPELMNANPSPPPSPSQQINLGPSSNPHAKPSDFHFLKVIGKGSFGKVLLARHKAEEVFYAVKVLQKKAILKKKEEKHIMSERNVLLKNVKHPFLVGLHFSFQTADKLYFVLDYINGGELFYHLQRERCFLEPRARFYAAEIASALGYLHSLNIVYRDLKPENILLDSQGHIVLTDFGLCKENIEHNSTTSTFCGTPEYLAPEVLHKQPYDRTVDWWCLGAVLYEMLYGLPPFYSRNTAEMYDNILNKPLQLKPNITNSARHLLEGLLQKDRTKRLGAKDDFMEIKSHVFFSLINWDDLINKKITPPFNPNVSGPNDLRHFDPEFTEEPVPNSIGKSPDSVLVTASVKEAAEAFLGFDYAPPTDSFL
The experiment in a line: Inhibition of human SGK1 S422D mutant (60 to 431 residues) at 10 uM using substrate after 5 mins in presence of [33P]ATP by scintillation counting method relative to control.

Data set [9] relates to Ribosomal protein S6 kinase beta-1 (Homo sapiens), P23443 [T412E]. The experiment in a line: Inhibition of human p70S6K T412E mutant (1 to 421 residues) at 10 uM using substrate after 5 mins in presence of [33P]ATP by scintillation counting method relative to control.
In data set [10] the target is Ribosomal protein S6 kinase alpha-1/alpha-3 (Homo sapiens) (UniProt P51812+Q15418). The experiment in a line: Inhibition of RSK1/2 (unknown origin) at 10 uM relative to control. It counts as protein assay.
For data set [11], the species on record is Homo sapiens. The experiment in a line: Inhibition of MSK (unknown origin) at 10 uM relative to control.

The structures appear in SMILES notation. A value given as a limit tells only on which side of the number the result lay.

Chain of Ribosomal protein S6 kinase beta-1 (Homo sapiens), P23443 [T412E] (P23443 whole entry T412E, looked up, the tested form may be a part): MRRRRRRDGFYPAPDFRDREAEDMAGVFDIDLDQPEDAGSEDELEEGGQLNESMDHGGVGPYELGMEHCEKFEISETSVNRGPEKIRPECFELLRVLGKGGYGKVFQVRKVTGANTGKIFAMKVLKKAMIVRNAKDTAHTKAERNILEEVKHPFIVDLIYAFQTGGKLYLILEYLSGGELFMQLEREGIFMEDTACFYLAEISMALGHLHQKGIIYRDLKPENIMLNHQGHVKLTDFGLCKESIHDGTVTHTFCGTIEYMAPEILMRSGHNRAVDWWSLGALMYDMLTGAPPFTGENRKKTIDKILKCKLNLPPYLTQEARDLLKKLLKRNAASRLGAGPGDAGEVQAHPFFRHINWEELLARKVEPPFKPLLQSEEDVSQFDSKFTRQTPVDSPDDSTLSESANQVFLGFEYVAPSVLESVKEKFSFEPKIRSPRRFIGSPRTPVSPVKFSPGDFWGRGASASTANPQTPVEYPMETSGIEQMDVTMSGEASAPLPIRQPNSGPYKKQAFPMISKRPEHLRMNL
Chain of Rho-associated protein kinase 1 (Homo sapiens) (Q13464 2-1354 limits assumed): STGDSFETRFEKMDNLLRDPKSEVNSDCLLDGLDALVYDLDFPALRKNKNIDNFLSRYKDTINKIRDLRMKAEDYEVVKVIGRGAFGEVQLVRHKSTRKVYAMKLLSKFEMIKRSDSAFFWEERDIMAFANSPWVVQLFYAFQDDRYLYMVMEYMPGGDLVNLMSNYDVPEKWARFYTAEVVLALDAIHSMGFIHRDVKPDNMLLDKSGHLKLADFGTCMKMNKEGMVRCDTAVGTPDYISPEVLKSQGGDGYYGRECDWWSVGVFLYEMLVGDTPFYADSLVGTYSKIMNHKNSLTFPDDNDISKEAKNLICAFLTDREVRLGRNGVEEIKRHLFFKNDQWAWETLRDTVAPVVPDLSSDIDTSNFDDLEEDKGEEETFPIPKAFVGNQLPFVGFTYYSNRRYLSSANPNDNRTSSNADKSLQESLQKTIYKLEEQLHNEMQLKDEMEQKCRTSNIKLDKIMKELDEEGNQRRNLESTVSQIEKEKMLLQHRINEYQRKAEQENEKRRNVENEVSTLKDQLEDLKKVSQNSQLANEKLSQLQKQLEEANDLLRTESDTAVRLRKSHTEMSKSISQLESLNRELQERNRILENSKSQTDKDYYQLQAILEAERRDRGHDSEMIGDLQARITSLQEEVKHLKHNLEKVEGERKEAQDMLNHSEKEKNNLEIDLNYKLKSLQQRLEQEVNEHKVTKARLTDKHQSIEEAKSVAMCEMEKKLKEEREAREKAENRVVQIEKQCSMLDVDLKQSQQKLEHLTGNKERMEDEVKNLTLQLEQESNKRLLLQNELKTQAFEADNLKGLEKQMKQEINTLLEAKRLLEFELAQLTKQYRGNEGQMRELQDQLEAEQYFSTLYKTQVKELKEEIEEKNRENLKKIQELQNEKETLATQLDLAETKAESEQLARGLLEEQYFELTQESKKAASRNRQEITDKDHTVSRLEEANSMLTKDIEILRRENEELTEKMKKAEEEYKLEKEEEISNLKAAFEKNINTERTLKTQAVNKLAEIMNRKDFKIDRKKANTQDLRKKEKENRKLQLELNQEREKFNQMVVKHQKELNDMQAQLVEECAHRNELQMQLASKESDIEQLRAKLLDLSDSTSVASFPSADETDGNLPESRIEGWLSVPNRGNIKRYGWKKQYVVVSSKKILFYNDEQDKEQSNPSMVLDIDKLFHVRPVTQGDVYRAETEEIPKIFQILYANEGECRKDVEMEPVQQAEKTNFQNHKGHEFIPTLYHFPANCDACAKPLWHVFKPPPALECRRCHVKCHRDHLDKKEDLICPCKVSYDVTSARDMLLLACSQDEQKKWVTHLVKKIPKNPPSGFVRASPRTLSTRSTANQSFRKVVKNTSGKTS
Chain of Rho-associated protein kinase 2 (Rattus norvegicus) (Q62868 whole entry, looked up, the tested form may be a part): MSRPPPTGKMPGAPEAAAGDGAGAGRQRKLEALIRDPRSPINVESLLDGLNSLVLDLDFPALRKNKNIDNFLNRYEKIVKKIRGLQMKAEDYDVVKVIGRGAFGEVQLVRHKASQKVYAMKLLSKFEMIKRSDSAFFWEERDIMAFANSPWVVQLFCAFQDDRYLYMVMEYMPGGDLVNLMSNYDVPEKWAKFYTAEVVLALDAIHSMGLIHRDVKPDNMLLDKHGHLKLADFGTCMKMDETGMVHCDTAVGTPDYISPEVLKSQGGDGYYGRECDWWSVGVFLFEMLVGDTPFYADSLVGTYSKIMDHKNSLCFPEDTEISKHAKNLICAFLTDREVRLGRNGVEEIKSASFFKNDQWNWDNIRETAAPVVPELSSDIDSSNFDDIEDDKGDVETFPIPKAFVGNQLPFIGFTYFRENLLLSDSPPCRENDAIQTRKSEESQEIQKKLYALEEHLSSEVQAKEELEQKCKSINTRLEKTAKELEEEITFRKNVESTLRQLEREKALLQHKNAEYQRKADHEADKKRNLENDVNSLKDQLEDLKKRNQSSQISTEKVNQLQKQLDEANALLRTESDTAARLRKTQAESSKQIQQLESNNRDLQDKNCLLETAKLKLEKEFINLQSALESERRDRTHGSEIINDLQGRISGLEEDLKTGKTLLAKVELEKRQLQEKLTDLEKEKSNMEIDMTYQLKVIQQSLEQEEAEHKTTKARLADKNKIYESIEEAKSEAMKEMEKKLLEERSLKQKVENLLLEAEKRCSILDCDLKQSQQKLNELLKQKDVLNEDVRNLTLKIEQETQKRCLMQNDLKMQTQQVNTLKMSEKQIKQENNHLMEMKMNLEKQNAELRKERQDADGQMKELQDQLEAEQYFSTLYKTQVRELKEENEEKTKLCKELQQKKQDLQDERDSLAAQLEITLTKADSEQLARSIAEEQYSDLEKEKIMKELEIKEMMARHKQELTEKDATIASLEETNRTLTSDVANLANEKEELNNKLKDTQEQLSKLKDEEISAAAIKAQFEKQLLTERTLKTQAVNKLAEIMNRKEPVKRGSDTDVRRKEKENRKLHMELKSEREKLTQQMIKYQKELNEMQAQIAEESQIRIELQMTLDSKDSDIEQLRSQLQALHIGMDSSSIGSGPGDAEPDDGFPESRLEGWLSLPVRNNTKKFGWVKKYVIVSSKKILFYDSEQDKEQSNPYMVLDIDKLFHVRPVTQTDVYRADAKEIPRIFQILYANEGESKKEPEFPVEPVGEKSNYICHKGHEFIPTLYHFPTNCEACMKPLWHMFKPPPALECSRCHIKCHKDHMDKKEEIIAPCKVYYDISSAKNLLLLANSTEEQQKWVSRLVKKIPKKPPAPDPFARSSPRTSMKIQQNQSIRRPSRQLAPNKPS
Chain of Ribosomal protein S6 kinase alpha-1/alpha-3 (Homo sapiens) (P51812 whole entry, looked up): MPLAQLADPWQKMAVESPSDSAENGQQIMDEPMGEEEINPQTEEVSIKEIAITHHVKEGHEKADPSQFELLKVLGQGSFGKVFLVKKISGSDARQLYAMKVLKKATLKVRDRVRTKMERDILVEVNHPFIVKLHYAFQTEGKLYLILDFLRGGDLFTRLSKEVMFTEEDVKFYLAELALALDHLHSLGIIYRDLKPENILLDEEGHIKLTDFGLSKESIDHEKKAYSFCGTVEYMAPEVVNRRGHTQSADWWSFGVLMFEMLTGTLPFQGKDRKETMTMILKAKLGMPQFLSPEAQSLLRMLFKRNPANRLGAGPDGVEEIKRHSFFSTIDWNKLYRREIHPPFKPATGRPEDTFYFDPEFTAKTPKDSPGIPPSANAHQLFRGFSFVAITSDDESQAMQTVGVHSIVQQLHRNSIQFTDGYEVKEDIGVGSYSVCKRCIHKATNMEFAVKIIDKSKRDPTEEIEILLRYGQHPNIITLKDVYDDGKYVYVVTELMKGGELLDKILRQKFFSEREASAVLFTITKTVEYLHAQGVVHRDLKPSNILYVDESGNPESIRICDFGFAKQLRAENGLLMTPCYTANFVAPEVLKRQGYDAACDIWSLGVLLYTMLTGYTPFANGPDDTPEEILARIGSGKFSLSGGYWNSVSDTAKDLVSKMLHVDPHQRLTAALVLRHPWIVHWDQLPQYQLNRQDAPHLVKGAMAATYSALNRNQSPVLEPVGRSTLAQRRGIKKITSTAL
Chain of Ribosomal protein S6 kinase alpha-1/alpha-3 (Homo sapiens) (Q15418 whole entry, looked up): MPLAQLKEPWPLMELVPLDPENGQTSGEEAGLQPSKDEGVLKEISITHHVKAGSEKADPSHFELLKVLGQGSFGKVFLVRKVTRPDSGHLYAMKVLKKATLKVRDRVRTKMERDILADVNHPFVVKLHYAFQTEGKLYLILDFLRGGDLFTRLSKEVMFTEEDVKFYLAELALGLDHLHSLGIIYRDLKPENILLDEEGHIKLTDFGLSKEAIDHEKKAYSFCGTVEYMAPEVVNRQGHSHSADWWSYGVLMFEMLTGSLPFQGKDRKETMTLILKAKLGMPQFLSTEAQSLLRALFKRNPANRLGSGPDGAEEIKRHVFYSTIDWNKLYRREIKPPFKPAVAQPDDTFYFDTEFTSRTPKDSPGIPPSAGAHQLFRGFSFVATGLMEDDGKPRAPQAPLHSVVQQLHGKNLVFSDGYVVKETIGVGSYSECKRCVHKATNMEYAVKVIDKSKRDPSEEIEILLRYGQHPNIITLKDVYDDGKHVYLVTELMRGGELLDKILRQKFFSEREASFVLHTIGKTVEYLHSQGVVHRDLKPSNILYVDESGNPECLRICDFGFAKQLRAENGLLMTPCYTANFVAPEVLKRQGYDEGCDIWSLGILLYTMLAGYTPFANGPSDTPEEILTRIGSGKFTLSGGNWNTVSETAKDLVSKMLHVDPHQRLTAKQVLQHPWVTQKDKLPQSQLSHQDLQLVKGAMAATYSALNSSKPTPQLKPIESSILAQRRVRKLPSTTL

For orientation: inhibition means how much of the control response was suppressed. For orientation: Kp means the ratio of the level in a tissue or fluid to that in plasma or blood. The T/C is the result in the treated group divided by that in the control group, in per cent. Broadly, the IC50 is the midpoint of a concentration-inhibition curve. As a reminder, the half-life is the time in which the quantity being followed falls by half. Read a low half-life as rapid decline. On to `NC[C@@](O)(c1ccc(Cl)cc1)c1ccc(-c2cn[nH]c2)cc1` [AT-13148], for which the inhibition was above 80% in [1]; 50% in data set [2]; above 80% in [4]; above 80% in the data set filed under Homo sapiens [7]; above 80% in [8]; above 80% in data set [9]. For the same compound, the inhibition (in [10]; in the data set listed under Homo sapiens [11]) was above 80% in each case. In addition, the Kp at 24 h in data set [3] was 13.6. The T/C in the data set on BT-474 stood at 36%. The IC50 in [5] is below 10 nM. The half-life in data set [6] was 2.8 h.

These data come from ChEMBL document CHEMBL4020778, “Recent progress towards clinically relevant ATP-competitive Akt inhibitors” (Bioorg Med Chem Lett, 2017).
